Measured values published in PMC8173106, “Modulating Enzyme Function via Dynamic Allostery within Biliverdin Reductase B” (Frontiers in Molecular Biosciences, 2021).

Molecular target: T1, human BLVRB (biliverdin reductase B) (Homo sapiens, UniProt P30043)
T1 construct: full length, 206 residues; codon-optimised, pET21b (T164S in pJ401k); N-terminal 6xHis tag removed with thrombin
T1 sequence (P30043 1-206): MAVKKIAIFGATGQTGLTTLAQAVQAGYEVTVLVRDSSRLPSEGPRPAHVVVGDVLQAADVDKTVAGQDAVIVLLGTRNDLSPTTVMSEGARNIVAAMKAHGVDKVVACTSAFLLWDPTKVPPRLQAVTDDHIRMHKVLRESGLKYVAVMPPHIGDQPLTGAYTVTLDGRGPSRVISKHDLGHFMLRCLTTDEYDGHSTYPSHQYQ
Assay: isothermal titration calorimetry
Assay type: binding
Conditions: 50 mM bis-tris, pH 6.5, 50 mM NaCl, 20 C; apo enzyme

Question: Which KD does the source give for `NC(=O)c1ccc[n+]([C@@H]2O[C@H](COP(=O)(O)OP(=O)(O)OC[C@H]3O[C@@H](n4cnc5c(N)ncnc54)[C@H](OP(=O)(O)O)[C@@H]3O)[C@@H](O)[C@H]2O)c1` [NADP^+] here?
Answer: screened for their dissociation constants (KD) to NADP^+ using ITC
